Measured values: patent publication US12521388B2, “Substituted dipyrido[1,2-a:1′,2′-d]pyrazines for treating viral infections” (Gilead Sciences, Inc., priority 2013, dated 2026)
Read-outs that look alike come from different tables or passages of the source.

Legend:
HIV-IIIb = test: Antiviral assay in MT4 cells; assay type: cell-based; settings: Human immunodeficiency virus 1, 120 h; MT4 cells infected with HIV-IIIb (0.004 m.o.i.), 5 days incubation, CellTiter-Glo; average over time; read-out: EC50 nM in MT-4
Protocol: (§1) For the antiviral assay utilizing MT4 cells, 0.4 μL of […] test concentration of 3-fold serially diluted compound in DMSO was added to 40 μL of cell growth medium (RPMI 1640, 10% FBS, 1% penicilline/Streptomycine, 1% L-Glutamine, 1% HEPES) in each well of 384-well assay plates (10 concentrations) in quidruplicate. 1 mL aliquots of 2×10^6 MT4 cells are pre-infected for 1 and 3 hours respectively at 37° C. with 25 μL (MT4) or of either cell growth medium (mock-infected) or a fresh 1:250 dilution of an HIV-IIIb concentrated ABI stock (0.004 m.o.i. for MT4 cells). Infected and uninfected cells are diluted in cell growth medium and 35 μL of 2000 (for MT4) cells is added to each well of the assay plates. Assay plates were then incubated in a 37° C. incubator. After 5 days of incubation, 25 μL of 2× concentrated CellTiter-Glo™ Reagent (catalog #G7573, Promega Biosciences, Inc., Madison, WI) was added to each well of the assay plate. Cell lysis was carried out by incubating at room temperature for 2-3 minutes, and then chemiluminescence was read using the Envision reader (PerkinElmer).

[1] = Cytotoxicity in MT4 cells (mock-infected) in the antiviral assay; assay type: cell-based; settings: human
Protocol: as §1

[2] = MT4 cells (mock-infected), MT4 cells, 5 days incubation, CellTiter-Glo, average over time, read-out: CC50 nM in MT-4

| SMILES | EC50 (HIV-IIIb) [nM] | CC50 at 5 days [1, 2] [nM] | CC50 at 5 days [1] [nM] |
| --- | --- | --- | --- |
| O=C(NCc1c(F)cc(F)cc1F)c1cn2c(c(O)c1=O)C(=O)N1C[C@H]3CCC[C@@]1(C3)C2 [Compound 7] | 2.8 | 13000 |  |
| O=C(NCc1c(F)cc(F)cc1F)c1cn2c(c(O)c1=O)C(=O)N1C3CCC1(CC3)C2 [Compound 15] | 2.3 | 24000 |  |
| O=C(NCc1ccc(F)cc1F)c1cn2c(c(O)c1=O)C(=O)N1C[C@@H]3CC[C@]1(C3)C2 [Compound 10, (3R,12aS)—N-(2,4-difluorobenzyl)-7-hydroxy-6,8-dioxo-2,3,4,6,8,12-hexahydro-1H-3,12a-methanodipyrido[1,2-a:1′,2′-d]pyrazine-9-carboxamide] | 2.3 | 24000 |  |
| O=C(NCc1c(F)cc(F)cc1F)c1cn2c(c(O)c1=O)C(=O)N1C[C@@H]3CCC[C@]1(C3)C2 [Compound 5] | 1.3 | 10600 |  |
| O=C(NCc1ccc(F)cc1F)c1cn2c(c(O)c1=O)C(=O)N1C3CCC1(CC3)C2 [Compound 3] | 1.9 |  | 26200 |
| O=C(NCc1ccc(F)cc1F)c1cn2c(c(O)c1=O)C(=O)N1C[C@H]3CC[C@@]1(C3)C2 [Compound 11] | 3.2 | 27900 |  |
| C[C@@H](NC(=O)c1cn2c(c(O)c1=O)C(=O)N1C3CCC1(CC3)C2)c1c(F)cc(F)cc1F [Compound 14] | 6.2 | 13200 |  |
| O=C(NCc1ccc(F)cc1F)c1cn2c(c(O)c1=O)C(=O)N1C[C@H]3CCC[C@@]1(C3)C2 [Compound 6] | 2.6 | 9660 |  |
| C[C@@]12CCC[C@]3(Cn4cc(C(=O)NCc5c(F)cc(F)cc5F)c(=O)c(O)c4C(=O)N3C1)C2 [Compound 9] | 1.4 | 8660 |  |
| O=C(NCc1c(F)cc(F)cc1F)c1cn2c(c(O)c1=O)C(=O)N1C[C@@H]3CC[C@]1(C3)C2 [Compound 13] | 1.7 | 24300 |  |
| O=C(NCc1ccc(F)cc1F)c1cn2c(c(O)c1=O)C(=O)N1C[C@@H]3CCC[C@]1(C3)C2 [Compound 4] | 1.6 | 11000 |  |
| O=C(NCc1ccc(F)cc1F)c1cn2c(c(O)c1=O)C(=O)N1C[C@H]3CC[C@@]1(CC3)C2 [Compound 2] | 4.4 | 53200 |  |
| O=C(NCc1c(F)cc(F)cc1F)c1cn2c(c(O)c1=O)C(=O)N1C[C@H]3CC[C@@]1(C3)C2 [Compound 12] | 3.2 | 53200 |  |
| O=C(NCc1ccc(F)cc1F)c1cn2c(c(O)c1=O)C(=O)N1C[C@H]3C[C@]1(C2)C3 [Compound 1] | 3.5 | 49900 |  |
| O=C(NCc1cccc(Cl)c1F)c1cn2c(c(O)c1=O)C(=O)N1C[C@H]3CCC[C@@]1(C3)C2 [Compound 8] | 2.3 | 5300 |  |
